Source: patent US12178801B1, “Stable psilocin salts, esters and conjugates and uses thereof” (LOBE SCIENCES LTD., priority 2022, dated 2024)
Several values for one entry are separate records, joined by “and”; a condition that tells them apart may be missing. Equal entries are not always repeated. Entries after “also recorded” stand apart in the source; their conditions may differ.

Legend:
[1] = Stability studies on psilocin mucate capsule (appearance, HPLC assay and impurities, TM-022-0392); format: physicochemical; details: for Assay TM-22-0392 (% Label Claim): specification 90.0-110.0%
Description: Additional stability studies were performed on psilocin mucate (also known as psilocin mucic acid salt or conjugate or psilocin galactaric acid salt or conjugate) capsule.
Appearance was evaluated by viewing of the sample on a watchglass over a black and white background.
Assay conditions for Test/Method TM-022-0392 assessing stability and impurities were as follows: • Mobile phase: MPA: 945 mL water, 5 mL H3PO4 pH to 5.7 with NaOH; MPB: Acetonitrile • Diluent: 80:20 Water:MeOH • Standard: 0.4 mg/mL Psilocin Mucic RS in Diluent • Sample:0.4 mg/mL Psilocin Mucic AP in Diluent • HPLC Conditions are depicted in Table 3.
*Additional equilibration may be required System suit: RSD NMT 2.0% (5 injections), Tailing NMT 2.0, Plate count NLT 10000
Calculations were against a bracketing external standard.
Identity of psilocin mucate was verified by ultraviolet (UV) assessment, wherein the UV spectrum of the main peak in the standard matched the UV spectrum of the main peak in the sample and by retention time wherein the retention time ratio was 0.98-1.02.

[2] = tested on: healthy subjects; assay: Phase one single-dose study of psilocin mucic acid conjugate capsules: MMSE and mood assessment by psychiatrist; details: single oral capsule 4.05 mg, equivalent to 2 mg psilocin
[3] = psilocin from psilocybin administration; cited from earlier work
[4] = psilocybin dose, equivalent to about 2 mg psilocin; cited from earlier work

CN(C)CCc1c[nH]c2cccc(O)c12.O=C(O)[C@@H](O)[C@H](O)[C@H](O)[C@@H](O)C(=O)O [psilocin mucate]
Time for which demonstrated to be stable [1]: at least 7 months | Appearance, Packaging: Labeled, amber glass bottle with white closure containing 15 partially filled white opaque capsules ([1]; capsule, 7 Months): Conforms | Appearance, Product: White to light brown powder partially filling white opaque capsules ([1]; capsule, 7 Months): Conforms | Total Impurities TM-22-0392 ([1]; capsule, 7 Months): <0.05% | Impurities TM-22-0392, individual impurities ([1]; capsule, 7 Months, all impurities): All <0.05% | Assay TM-22-0392 (% Label Claim) ([1]; capsule, 7 Months): 101.7% | Appearance, Packaging: Labeled, amber glass bottle with white closure containing 15 partially filled white opaque capsules ([1]; capsule, Initial): Conforms | Appearance, Product: White to light brown powder partially filling white opaque capsules ([1]; capsule, Initial): Conforms | Total Impurities TM-22-0392 ([1]; capsule, Initial): 0.08% | Assay TM-22-0392 (% Label Claim) ([1]; capsule, Initial): 100.8% | FEELING STATUS ([2]; one statement per subject (01-10)): Less anxious, better mood, increase their appetite; also recorded: Feel little beet happier, better energy; also recorded: Feel calm, less thoughts, happier mood; also recorded: Euphoric, better mood, it helps with life stress; also recorded: Euphories, better mood, sleepy, feel time is slower; also recorded: Sleepy, better thoughts, less worried in general; also recorded: Did not feel change in mood but feeling cold; also recorded: More relaxed, want to drink sweet tea, better; also recorded: Better mood, feels hyper sexual; also recorded: Felt high mood, now they feel in good way, , | MMSE ([2]; one value per subject (01-10), scores expected below 25 with a hallucinogenic substance): 29 (2×) and 30 (3×) and 28 (3×) and 27 (2×)

CN(C)CCc1c[nH]c2cccc(O)c12 [psilocin]
Estimated dose-normalized bioavailability [3]: 52.7%

CN(C)CCc1c[nH]c2cccc(OP(=O)(O)O)c12 [psilocybin, Psilocybin]
Lowest dose with reported hallucinogenic effects coupled with increased anxiety [4]: 5 mg
